The test system of this experiment is NF-κ B. In words: Inhibitory activity of NF-κ B activation, luciferase reporter assay in HepG2 under TNF-α stimulation. In kind it is cell-based, human. The conditions noted are these: HepG2, TNF-α (40 ng/ml), 4 hours; for inhibition at 1 µg/mL / inhibition at 10 µg/mL: Homo sapiens; for Inhibitory Ratio of NF-κ B Activation(%) Drug Concentration 1 μg/mL / inhibition at 1 µg/mL: 1 μg/mL; for inhibition at 1 µg/mL: read-out: Inhibitory Ratio of NF-κ B Activation(%) Drug Concentration 1 μg/mL; for Inhibitory Ratio of NF-κ B Activation(%) Drug Concentration 10 μg/mL / inhibition at 10 µg/mL: 10 μg/mL; for inhibition at 10 µg/mL: read-out: Inhibitory Ratio of NF-κ B Activation(%) Drug Concentration 10 μg/mL. Here is the method:
Using a transfection reagent(Effectene; QIAGEN), the human hepatoma cell strain HepG2 was transfected with a plasmid(pNF κ B-Luc Reporter Plasmid; […]) which is integrated with an oligonucleotide having five tandem copies of NF-κ B binding sequences([…]) on a upstream region of firefly luciferase gene(Luc) according to the QIAGEN's protocol, and the cells were incubated for 6 to 24 hours. After the addition of TNF-α (40 ng/ml) in the presence or absence of a test compound, the cells were incubated for 4 hours, and intracellular luciferase activity was measured by using PicaGene LT (TOYO INK MFG Co., Ltd.) and a chemical luminescence measurement apparatus ([…]luor Plus; TECAN). The inhibitory ratio was measured as a ratio relative to the value of a luciferase activity in the absence of the test compound.

Consider 39 molecules from US20060089395A1, “Nf-kb activation inhibitors” (priority 2002, published 2006).

As for `O=C(Nc1cc(C(F)(F)F)cc(C(F)(F)F)c1)c1c(O)cccc1O` [Compound No. 52], the “Inhibitory Ratio of NF-κ B Activation(%) Drug Concentration 1 μg/mL” value was determined as 96.4% and the “Inhibitory Ratio of NF-κ B Activation(%) Drug Concentration 10 μg/mL” value is 97.3%.

For `Cc1ccc(C(=O)Nc2cc(C(F)(F)F)cc(C(F)(F)F)c2)c(O)c1` [Compound No. 53], the “Inhibitory Ratio of NF-κ B Activation(%) Drug Concentration 1 μg/mL” value stood at 93.3% and the “Inhibitory Ratio of NF-κ B Activation(%) Drug Concentration 10 μg/mL” value is given as 94.5%.

On to `O=C(Nc1cc(C(F)(F)F)cc(C(F)(F)F)c1)c1cc(Br)c(O)cc1O` [Compound No. 54], for which the “Inhibitory Ratio of NF-κ B Activation(%) Drug Concentration 10 μg/mL” value came out at 86.5%.

For `O=C(Nc1cc(C(F)(F)F)cc(C(F)(F)F)c1)c1ccc(O)cc1O` [Compound No. 55], the “Inhibitory Ratio of NF-κ B Activation(%) Drug Concentration 1 μg/mL” value stood at 10.8% and the “Inhibitory Ratio of NF-κ B Activation(%) Drug Concentration 10 μg/mL” value was determined as 88.6%.

Turning to `O=C(Nc1cc(C(F)(F)F)cc(C(F)(F)F)c1)c1cc(Cl)cc(Cl)c1O` [Compound No. 56], the “Inhibitory Ratio of NF-κ B Activation(%) Drug Concentration 1 μg/mL” value is given as 89.4% and the “Inhibitory Ratio of NF-κ B Activation(%) Drug Concentration 10 μg/mL” value is on record as 95.1%.

Take `O=C(Nc1cc(C(F)(F)F)cc(C(F)(F)F)c1)c1cccc(O)c1O` [Compound No. 57]: the “Inhibitory Ratio of NF-κ B Activation(%) Drug Concentration 10 μg/mL” value turned out to be 91.9%.

Turning to `Cc1cccc(C(=O)Nc2cc(C(F)(F)F)cc(C(F)(F)F)c2)c1O` [Compound No. 58, N-[3,5-bis(trifluoromethyl)phenyl]-2-hydroxy-3-methylbenzamide], the inhibition at 1 µg/mL was 88.2% and the inhibition at 10 µg/mL was found to be 95%.

As for `COc1cccc(C(=O)Nc2cc(C(F)(F)F)cc(C(F)(F)F)c2)c1O` [Compound No. 59], the “Inhibitory Ratio of NF-κ B Activation(%) Drug Concentration 1 μg/mL” value amounted to 41.9% and the “Inhibitory Ratio of NF-κ B Activation(%) Drug Concentration 10 μg/mL” value was determined as 94.7%.

As for `CC(C)(C)CC(C)(C)c1ccc(O)c(C(=O)Nc2cc(C(F)(F)F)cc(C(F)(F)F)c2)c1` [Compound No. 60], the “Inhibitory Ratio of NF-κ B Activation(%) Drug Concentration 1 μg/mL” value is 94.0% and the “Inhibitory Ratio of NF-κ B Activation(%) Drug Concentration 10 μg/mL” value is 99.1%.

For the molecule `O=C(Nc1cc(C(F)(F)F)cc(C(F)(F)F)c1)c1c(O)c(Cl)cc(Cl)c1Cl` [Compound No. 61], the “Inhibitory Ratio of NF-κ B Activation(%) Drug Concentration 1 μg/mL” value is on record as 95.1% and the “Inhibitory Ratio of NF-κ B Activation(%) Drug Concentration 10 μg/mL” value worked out at 97.2%.

Regarding `CC(C)(C)c1cc(C(=O)Nc2cc(C(F)(F)F)cc(C(F)(F)F)c2)c(O)c(C(C)(C)C)c1` [Compound No. 62], the “Inhibitory Ratio of NF-κ B Activation(%) Drug Concentration 1 μg/mL” value is recorded as 37.0% and the “Inhibitory Ratio of NF-κ B Activation(%) Drug Concentration 10 μg/mL” value is listed as 86.9%.

For the molecule `O=C(Nc1cc(C(F)(F)F)cc(C(F)(F)F)c1)c1cccc(Cl)c1O` [Compound No. 64], the “Inhibitory Ratio of NF-κ B Activation(%) Drug Concentration 1 μg/mL” value is reported as 84.9% and the “Inhibitory Ratio of NF-κ B Activation(%) Drug Concentration 10 μg/mL” value is given as 94.1%.

Take `COc1ccc(C(=O)Nc2cc(C(F)(F)F)cc(C(F)(F)F)c2)c(O)c1` [Compound No. 65]: the “Inhibitory Ratio of NF-κ B Activation(%) Drug Concentration 1 μg/mL” value is 83.3% and the “Inhibitory Ratio of NF-κ B Activation(%) Drug Concentration 10 μg/mL” value is on record as 89.8%.

Consider `O=C(Nc1cc(C(F)(F)F)cc(C(F)(F)F)c1)c1cc2ccccc2cc1O` [Compound No. 72], for which the “Inhibitory Ratio of NF-κ B Activation(%) Drug Concentration 1 μg/mL” value came out at 94.6% and the “Inhibitory Ratio of NF-κ B Activation(%) Drug Concentration 10 μg/mL” value is reported as 95.0%.

On to `O=C(Nc1cc(C(F)(F)F)cc(C(F)(F)F)c1)c1scc(Br)c1O` [Compound No. 74, 4-Bromo-3-hydroxy-N-[3,5-bis(trifluoromethyl)phenyl]thiophene-2-carboxamide], for which the inhibition at 1 µg/mL was 64% and the inhibition at 10 µg/mL was 97.5%.

Regarding `O=C(Nc1cc(C(F)(F)F)cc(C(F)(F)F)c1)c1cc(Cl)cnc1O` [Compound No. 75], the “Inhibitory Ratio of NF-κ B Activation(%) Drug Concentration 1 μg/mL” value is 58.1% and the “Inhibitory Ratio of NF-κ B Activation(%) Drug Concentration 10 μg/mL” value was 82.2%.

Consider `O=C(Nc1cc(C(F)(F)F)cc(C(F)(F)F)c1)c1cc(Cl)ccc1O` [Compound No. 80], for which the “Inhibitory Ratio of NF-κ B Activation(%) Drug Concentration 1 μg/mL” value stood at 46.3% and the “Inhibitory Ratio of NF-κ B Activation(%) Drug Concentration 10 μg/mL” value came to 73.0%.

`CC(=O)Oc1ccc(Cl)cc1C(=O)Nc1cc(C(F)(F)F)ccc1C(F)(F)F` [Compound No. 82]: the “Inhibitory Ratio of NF-κ B Activation(%) Drug Concentration 1 μg/mL” value stood at 94.0% and the “Inhibitory Ratio of NF-κ B Activation(%) Drug Concentration 10 μg/mL” value is reported as 96.8%.

Take `Cc1ccc(O)c(C(=O)Nc2cc(C(F)(F)F)ccc2C(F)(F)F)c1` [Compound No. 84]: the “Inhibitory Ratio of NF-κ B Activation(%) Drug Concentration 1 μg/mL” value is reported as 92.6% and the “Inhibitory Ratio of NF-κ B Activation(%) Drug Concentration 10 μg/mL” value was determined as 96.6%.

Consider `O=C(Nc1cc(F)cc(C(F)(F)F)c1)c1cc(Cl)ccc1O` [Compound No. 85], for which the “Inhibitory Ratio of NF-κ B Activation(%) Drug Concentration 1 μg/mL” value is on record as 94.7% and the “Inhibitory Ratio of NF-κ B Activation(%) Drug Concentration 10 μg/mL” value was 98.9%.

As to `O=C(Nc1cc(C(F)(F)F)ccc1F)c1cc(Cl)ccc1O` [Compound No. 87], the “Inhibitory Ratio of NF-κ B Activation(%) Drug Concentration 1 μg/mL” value is given as 93.1% and the “Inhibitory Ratio of NF-κ B Activation(%) Drug Concentration 10 μg/mL” value stood at 95.9%.

In the case of `CC(=O)Oc1ccc(Cl)cc1C(=O)Nc1cc(C(F)(F)F)ccc1Cl` [Compound No. 89], the “Inhibitory Ratio of NF-κ B Activation(%) Drug Concentration 1 μg/mL” value was determined as 96.7% and the “Inhibitory Ratio of NF-κ B Activation(%) Drug Concentration 10 μg/mL” value is 97.4%.

As for `O=C(Nc1cc(C(F)(F)F)ccc1[N+](=O)[O-])c1cc(Cl)ccc1O` [Compound No. 91], the “Inhibitory Ratio of NF-κ B Activation(%) Drug Concentration 1 μg/mL” value is given as 86.3% and the “Inhibitory Ratio of NF-κ B Activation(%) Drug Concentration 10 μg/mL” value was found to be 96.7%.

For `COc1ccc(C(F)(F)F)cc1NC(=O)c1cc(Cl)ccc1O` [Compound No. 95], the “Inhibitory Ratio of NF-κ B Activation(%) Drug Concentration 1 μg/mL” value is recorded as 91.8% and the “Inhibitory Ratio of NF-κ B Activation(%) Drug Concentration 10 μg/mL” value amounted to 98.5%.

On to `CSc1ccc(C(F)(F)F)cc1NC(=O)c1cc(Cl)ccc1O` [Compound No. 96], for which the “Inhibitory Ratio of NF-κ B Activation(%) Drug Concentration 1 μg/mL” value turned out to be 94.6% and the “Inhibitory Ratio of NF-κ B Activation(%) Drug Concentration 10 μg/mL” value came out at 99.1%.

Regarding `O=C(Nc1cc(C(F)(F)F)ccc1N1CCCC1)c1cc(Br)ccc1O` [Compound No. 97], the “Inhibitory Ratio of NF-κ B Activation(%) Drug Concentration 1 μg/mL” value amounted to 95.8% and the “Inhibitory Ratio of NF-κ B Activation(%) Drug Concentration 10 μg/mL” value turned out to be 97.8%.

On to `O=C(Nc1cc(C(F)(F)F)ccc1N1CCOCC1)c1cc(Br)ccc1O` [Compound No. 98], for which the “Inhibitory Ratio of NF-κ B Activation(%) Drug Concentration 1 μg/mL” value stood at 81.8% and the “Inhibitory Ratio of NF-κ B Activation(%) Drug Concentration 10 μg/mL” value is 86.4%.

As for `O=C(Nc1cc(C(F)(F)F)ccc1Cl)c1cc([N+](=O)[O-])ccc1O` [Compound No. 99], the “Inhibitory Ratio of NF-κ B Activation(%) Drug Concentration 1 μg/mL” value came out at 54.3% and the “Inhibitory Ratio of NF-κ B Activation(%) Drug Concentration 10 μg/mL” value came to 98.0%.

Regarding `Cc1ccc(O)c(C(=O)Nc2cc(C(F)(F)F)ccc2Cl)c1` [Compound No. 100], the “Inhibitory Ratio of NF-κ B Activation(%) Drug Concentration 1 μg/mL” value is 85.6% and the “Inhibitory Ratio of NF-κ B Activation(%) Drug Concentration 10 μg/mL” value was 95.1%.

With `COc1ccc(O)c(C(=O)Nc2cc(C(F)(F)F)ccc2Cl)c1` [Compound No. 101], the “Inhibitory Ratio of NF-κ B Activation(%) Drug Concentration 1 μg/mL” value was determined as 17.7% and the “Inhibitory Ratio of NF-κ B Activation(%) Drug Concentration 10 μg/mL” value is recorded as 82.0%.

On to `Cc1ccc(O)c(C(=O)Nc2cc(C(F)(F)F)ccc2C)c1` [Compound No. 102], for which the “Inhibitory Ratio of NF-κ B Activation(%) Drug Concentration 1 μg/mL” value was 89.3% and the “Inhibitory Ratio of NF-κ B Activation(%) Drug Concentration 10 μg/mL” value came out at 98.3%.

In the case of `O=C(Nc1cc(Br)cc(C(F)(F)F)c1)c1cc(Cl)ccc1O` [Compound No. 104], the “Inhibitory Ratio of NF-κ B Activation(%) Drug Concentration 1 μg/mL” value turned out to be 97.2% and the “Inhibitory Ratio of NF-κ B Activation(%) Drug Concentration 10 μg/mL” value was determined as 99.2%.

On to `COc1cc(NC(=O)c2cc(Cl)ccc2O)cc(C(F)(F)F)c1` [Compound No. 105], for which the “Inhibitory Ratio of NF-κ B Activation(%) Drug Concentration 1 μg/mL” value was found to be 94.6% and the “Inhibitory Ratio of NF-κ B Activation(%) Drug Concentration 10 μg/mL” value was 97.5%.

For `O=C(Nc1cc(C(F)(F)F)ccc1N1CCOCC1)c1cc(Cl)ccc1O` [Compound No. 106], the “Inhibitory Ratio of NF-κ B Activation(%) Drug Concentration 1 μg/mL” value turned out to be 92.3% and the “Inhibitory Ratio of NF-κ B Activation(%) Drug Concentration 10 μg/mL” value was 92.1%.

`O=C(Nc1cc(C(F)(F)F)ccc1Br)c1cc(Cl)ccc1O` [Compound No. 107]: the “Inhibitory Ratio of NF-κ B Activation(%) Drug Concentration 1 μg/mL” value came out at 94.9% and the “Inhibitory Ratio of NF-κ B Activation(%) Drug Concentration 10 μg/mL” value was determined as 96.2%.

On to `COC(=O)c1cc(NC(=O)c2cc(Cl)ccc2O)cc(C(F)(F)F)c1` [Compound No. 108, 5-chloro-2-hydroxy-N-[3-methoxycarbonyl-5-(trifluoromethyl)phenyl]benzamide], for which the inhibition at 1 µg/mL worked out at 41.5% and the inhibition at 10 µg/mL turned out to be 88.4%.

Consider `O=C(Nc1cc(C(F)(F)F)ccc1Oc1ccc2ccccc2c1)c1cc(Cl)ccc1O` [Compound No. 110], for which the “Inhibitory Ratio of NF-κ B Activation(%) Drug Concentration 1 μg/mL” value is 96.5% and the “Inhibitory Ratio of NF-κ B Activation(%) Drug Concentration 10 μg/mL” value is given as 98.7%.

With `O=C(Nc1cc(C(F)(F)F)ccc1Oc1ccc(Cl)cc1Cl)c1cc(Cl)ccc1O` [Compound No. 111], the “Inhibitory Ratio of NF-κ B Activation(%) Drug Concentration 1 μg/mL” value is 96.5% and the “Inhibitory Ratio of NF-κ B Activation(%) Drug Concentration 10 μg/mL” value came out at 99.7%.

For `O=C(Nc1cc(C(F)(F)F)ccc1N1CCC(C(F)(F)F)CC1)c1cc(Cl)ccc1O` [Compound No. 112], the “Inhibitory Ratio of NF-κ B Activation(%) Drug Concentration 1 μg/mL” value is 96.5% and the “Inhibitory Ratio of NF-κ B Activation(%) Drug Concentration 10 μg/mL” value was 95.7%.
